{
  "source": "the supplement of paper PMC10307832",
  "assay_in_all_cases": "relative viability (nuclei count vs DMSO), 5 days (fraction); higher = more cells survive",
  "key": {"Kobe2602 + Bortezomib": {"compound": "C1=CC(=CC=C1NC(=S)NNC2=C(C=C(C=C2[N+](=O)[O-])C(F)(F)F)[N+](=O)[O-])F [Kobe2602] + CC(C)C[C@H](NC(=O)[C@H](Cc1ccccc1)NC(=O)c1cnccn1)B(O)O [Bortezomib] (partner 0.002 µM)", "in_short": "(§1)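 Lung cancer cell lines were pin-tool dosed in 1536-well plates on the day after seeding, with either a lone drug or a fixed anchor-drug dose plus five library-drug doses (not always all listed) in √10 steps. Nuclei were counted on 4× images after 5 days. Relative viability is the ratio of treated-well to vehicle-well nuclei counts, with each value a median of duplicate plates.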"}, "Cabozantinib + Foretinib": {"compound": "COc1cc2nccc(Oc3ccc(NC(=O)C4(C(=O)Nc5ccc(F)cc5)CC4)cc3)c2cc1OC [Cabozantinib] + COc1cc2c(Oc3ccc(NC(=O)C4(C(=O)Nc5ccc(F)cc5)CC4)cc3F)ccnc2cc1OCCCN1CCOCC1 [Foretinib] (partner 0.25 µM)", "in_short": "as §1"}, "[1]": {"compound": "COc1cc2nccc(Oc3ccc(NC(=O)C4(C(=O)Nc5ccc(F)cc5)CC4)cc3)c2cc1OC [Cabozantinib] + C[C@@H](Oc1cc(-c2cnn(C3CCNCC3)c2)cnc1N)c1c(Cl)ccc(F)c1Cl [Crizotinib] (partner 1 µM)", "in_short": "as §1"}, "Cabozantinib + Olaparib": {"compound": "COc1cc2nccc(Oc3ccc(NC(=O)C4(C(=O)Nc5ccc(F)cc5)CC4)cc3)c2cc1OC [Cabozantinib] + O=C(c1cc(Cc2n[nH]c(=O)c3ccccc23)ccc1F)N1CCN(C(=O)C2CC2)CC1 [Olaparib] (partner 8 µM)", "in_short": "as §1"}},
  "data": [
    {"cell line": "UMC-11", "values": [
      {"measurement": "relative viability", "setting": "Kobe2602 + Bortezomib; first compound 0.2 µM", "result": 0.779},
      {"measurement": "relative viability", "setting": "Kobe2602 + Bortezomib; first compound 0.6325 µM", "result": 0.819},
      {"measurement": "relative viability", "setting": "Kobe2602 + Bortezomib; first compound 2 µM", "result": 0.795},
      {"measurement": "relative viability", "setting": "Kobe2602 + Bortezomib; first compound 6.325 µM", "result": 0.628},
      {"measurement": "relative viability", "setting": "Kobe2602 + Bortezomib; first compound 20 µM", "result": 0.645},
      {"measurement": "relative viability", "setting": "Cabozantinib + Foretinib; first compound 0.02 µM", "result": 0.959},
      {"measurement": "relative viability", "setting": "Cabozantinib + Foretinib; first compound 0.06325 µM", "result": 1.21},
      {"measurement": "relative viability", "setting": "Cabozantinib + Foretinib; first compound 0.2 µM", "result": 1.01},
      {"measurement": "relative viability", "setting": "Cabozantinib + Foretinib; first compound 0.6325 µM", "result": 1.03},
      {"measurement": "relative viability", "setting": "Cabozantinib + Foretinib; first compound 2 µM", "result": 0.942},
      {"measurement": "relative viability", "setting": "[1]; first compound 0.02 µM", "result": 0.609},
      {"measurement": "relative viability", "setting": "[1]; first compound 0.06325 µM", "result": 0.592},
      {"measurement": "relative viability", "setting": "[1]; first compound 0.2 µM", "result": 0.717},
      {"measurement": "relative viability", "setting": "[1]; first compound 0.6325 µM", "result": 0.668},
      {"measurement": "relative viability", "setting": "[1]; first compound 2 µM", "result": 0.578},
      {"measurement": "relative viability", "setting": "Cabozantinib + Olaparib; first compound 0.02 µM", "result": 0.399},
      {"measurement": "relative viability", "setting": "Cabozantinib + Olaparib; first compound 0.06325 µM", "result": 0.304},
      {"measurement": "relative viability", "setting": "Cabozantinib + Olaparib; first compound 0.2 µM", "result": 0.502},
      {"measurement": "relative viability", "setting": "Cabozantinib + Olaparib; first compound 0.6325 µM", "result": 0.312},
      {"measurement": "relative viability", "setting": "Cabozantinib + Olaparib; first compound 2 µM", "result": 0.391}
    ]}
  ]
}
